Patent US5994336A, “Method of inhibiting proliferation of cells by administering an aminosterol compound” (priority 1995, dated 1999)
Entries after “also recorded” stand apart in the source; their conditions may differ.

Legend:
[1] = test system: human epithelial cell line MCF 10A; test: Growth inhibition in vitro (absorbance at 600 nm); assay type: cell-based; settings: 10 μg/ml; FIG. 3B
[2] = test system: human microvascular cells; test: Inhibition of endothelial cell cord formation in vitro; assay type: cell-based; settings: words
From the text: Endothelial cells have the capacity in vitro to form tubular aggregates resembling capillaries in various early stages of formation. This conversion occurs under relatively specific conditions, in which essential growth factors along with an effective substratum are provided. It has been shown that both the interaction of growth factors with the endothelial cell and its attachment to a substratum activate the NHE. The activation of this exchanger is believed to be required for subsequent morphologic transformation of the endothelial cell into a multicellular tubular structure.
To assess the effect of compounds on the cord-like structures formed by human microvascular cells when plated in the presence of VEGF (Vascular Endothelial Growth Factor) and basic fibroblast growth factor on a collagen matrix, a standard cord formation assay was used.

vitelline capillaries = test: Chick embryo vitelline capillary regression assay; assay type: in vivo; design: key to vascular reactivity: +: Vascular reactivity; 0: No vascular reactivity; +/-: Equivocal reactivity; settings: for vascular reactivity: 60 minutes
Description: Using the chick embryo vitelline capillaries assay, compounds were tested for their ability to induce capillary regression. Each compound was applied in 0.1 ml of 15% Ficol 400 and PBS onto the embryo, and vascular regression was assessed after 60 minutes.
The 3-day chick embryo consists of an embryonic disc from which numerous vessels emerge and return, forming a "FIG. 8"-shaped structure--the embryo in the center with vascular loops extending outward over both poles. […] Following a lag period of around 15 minutes, the constriction of continuity between capillary and secondary vessels, generally on the "venous" side, was observed. Continued pulsatile blood flow progressed, resulting in a "swelling" of the blind tube, followed by a pinching off of the remaining connection and formation of an enclosed vascular sac resembling a "blood island." This process progressed until only the largest vessels remained intact.

[3] = test system: bovine pulmonary endothelial cells; test: Growth inhibition in vitro (absorbance at 600 nm); assay type: cell-based; settings: 1 μg/ml; FIG. 3A
B16 melanoma [4] = test: Suppression of growth of B16 melanoma in C57B mice; assay type: in vivo, mouse
Description: The growth of B16 melanoma in C57B mice is dependent upon neovascularization.
Using the growth of B16 melanoma cells in C57B mice, a recognized model for the evaluation of inhibitors of angiogenesis on the growth of cancers, the effects of subcutaneous, intraperitoneal and oral administration of squalamine were evaluated.

[5] = test system: PHA-stimulated human lymphocytes; test: Inhibition of mitogen (PHA)-stimulated growth of human T-cells; assay type: cell-based
From the text: Results are tabulated below.

[6] = test system: Xenopus tadpole, stage 59-60; test: Tadpole assay; assay type: in vivo, Xenopus laevis; settings: 10 μg/ml; for pharmacological response in tadpole (words): stage 59-60
From the text: For example, substances that destroy all of the animal's epithelium, both adult and embryonic, could be regarded as toxic.
The volume of liquid is sufficient for the animal to swim freely and drink from the solution. […] If the volume of liquid is not sufficient to permit oral intake, the effects that are observed would result from absorption through the surface epithelium.
In another embodiment of this assay, a solution of a compound in water can be injected directly into the abdomen of the animal using standard techniques.
After an amount of time, typically about 60 minutes, the occlusion of blood flow through capillaries in the tadpole's tail are observed under an inverted microscope at a magnification of roughly 100×.
In the assay, each of the steroids was dissolved in 100 ml of distilled water at a concentration of 10 μg/ml. Stage 59-60 Xenopus tadpoles were introduced and evaluated by light microscopy and gross observation 1 hour later.

[7] = test system: bacteria, fungi and protozoa; settings: cited from earlier work
B16 melanoma [8] = test: Synergistic inhibition of tumor growth, B16 melanoma model; assay type: in vivo, mouse; settings: squalamine alone
Description: Based on the idea that tumor growth involves both the clonal expansion of a malignant cell along with the development of a supporting vascular supply, a combination of compound 1436 with squalamine was tested to determine whether it would achieve a synergistic effect on solid tumor growth. This concept was evaluated in the B16 melanoma model.
Animals were implanted with B16 melanoma followed by treatment with compound 1436 or 1256 administered in a combined schedule or separately. […] Thus, a combination of these two compounds achieves a therapeutic benefit in tumors dependent on neovascularization that may prevent metastatic spread.

B16 = test: Cytostatic activity against B16 in culture; assay type: cell-based, murine; settings: except at very high concentrations
rabbit NHE1 = test: NHE1 inhibition, internal pH (BCECF-AM) in transfected PS120 fibroblasts; assay type: cell-based; settings: 5 μg/ml; FIG. 2A
Description: (§1) PS120 fibroblasts transfected with rabbit or human NHE1 were grown as described above.

human NHE1 = test: as above; assay type: cell-based; settings: 5 μg/ml; FIG. 2B
Description: as §1

[9] = test system: human umbilical venous endothelial cells; test: LPS-induced neutrophil adherence; assay type: cell-based; settings: squalamine 10 μg, 1.0 μg or 0.1 μg
From the text: Methods 109, 1988, 175-184.

human melanoma 1205Lu = test: Suppression of growth of human melanoma in RAG-1 mice; assay type: in vivo
From the text: As apparent from FIG. 5, melanoma 1205Lu develops aggressively in RAG-1 mice after implantation.

rabbit NHE3 = molecular target: T1, rabbit NHE3 (Oryctolagus cuniculus, UniProt P26432); assay type: cell-based
T1 construct: BCECF internal pH recovery

[10] = listed as Compound 1256 (Squalamine)

T1 sequence (P26432 30-832): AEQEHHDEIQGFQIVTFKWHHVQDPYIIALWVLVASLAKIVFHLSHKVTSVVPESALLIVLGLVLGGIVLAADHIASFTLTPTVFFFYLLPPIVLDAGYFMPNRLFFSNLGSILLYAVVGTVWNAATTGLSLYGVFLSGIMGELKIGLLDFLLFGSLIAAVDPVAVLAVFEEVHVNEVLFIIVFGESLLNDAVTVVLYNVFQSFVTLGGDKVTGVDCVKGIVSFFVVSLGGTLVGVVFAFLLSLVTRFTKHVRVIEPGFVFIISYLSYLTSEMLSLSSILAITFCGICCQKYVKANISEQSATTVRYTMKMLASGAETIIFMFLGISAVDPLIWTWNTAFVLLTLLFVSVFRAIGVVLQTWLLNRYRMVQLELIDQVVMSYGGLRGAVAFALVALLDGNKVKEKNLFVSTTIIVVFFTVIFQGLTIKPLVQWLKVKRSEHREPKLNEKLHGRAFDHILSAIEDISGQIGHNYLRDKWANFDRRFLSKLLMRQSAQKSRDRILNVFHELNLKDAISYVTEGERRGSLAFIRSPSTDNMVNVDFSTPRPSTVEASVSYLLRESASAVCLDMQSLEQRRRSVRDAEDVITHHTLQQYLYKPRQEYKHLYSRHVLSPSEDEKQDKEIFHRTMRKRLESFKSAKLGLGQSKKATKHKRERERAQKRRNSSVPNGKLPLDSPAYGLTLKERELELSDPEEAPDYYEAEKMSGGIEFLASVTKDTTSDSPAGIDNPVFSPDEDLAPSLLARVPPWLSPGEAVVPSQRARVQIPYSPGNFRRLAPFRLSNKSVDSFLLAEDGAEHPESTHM

## CC(C)[C@@H](CC[C@@H](C)[C@H]1CC[C@H]2[C@@H]3[C@H](O)C[C@H]4C[C@@H](NCCCNCCCCN)CC[C@]4(C)[C@H]3CC[C@]12C)OS(=O)(=O)O [squalamine]
[1]
  growth of epithelial line: no effect
[2]
  effect on cell viability or proliferation at cord-inhibiting concentrations: does not appear to profoundly affect cell viability or proliferation
Vitelline capillaries
  activity on vitelline capillaries: especially active
Vitelline capillaries; 0.001 μg applied
  vascular reactivity: 0
Vitelline capillaries; 0.01 μg applied
  vascular reactivity: +
Vitelline capillaries; 0.1 μg applied
  vascular reactivity: +
Vitelline capillaries; 1 μg applied
  vascular reactivity: +
Vitelline capillaries; 10 μg applied
  vascular reactivity: +
Vitelline capillaries; 3- to 5-day chick embryos
  disruption of vitelline capillaries: found to disrupt vitelline capillaries
Vitelline capillaries; 3-day chick embryo
  lag period before capillary constriction: around 15 minutes
Vitelline capillaries; chick embryo, microscopic observation
  hemolysis: absence of hemolysis
[3]
  growth of bovine pulmonary endothelial cells: inhibited the growth
B16 melanoma [4]; B16-bearing mice
  body weight and hematologic parameters: no significant depression
B16 melanoma [4]; intraperitoneal, FIGS. 4B, 4B-1
  suppression of tumor volume: dose-dependent suppression of tumor volume
B16 melanoma [4]; oral, FIGS. 4C, 4C-1
  suppression of tumor volume: dose-dependent suppression of tumor volume
B16 melanoma [4]; subcutaneous, FIGS. 4A, 4A-1
  suppression of tumor volume: dose-dependent suppression of tumor volume
[5]
  inhibition of blast transformation: Some effect
[6]
  tissues or functions not affected in tadpole: unaltered blood flow through the fine capillaries of the hands and feet
  pharmacological response in tadpole (words): blood flow through the capillaries of the tail shut down; also recorded: common vascular occlusive effect
[6]; [10]
  pharmacological response in tadpole (words): Vascular occlusion in fine capillaries of tail
  tissues or functions not affected in tadpole: No effect on vascular flow through hands or feet
[7]
  antibiotic spectrum: broad-spectrum antibiotic, killing bacteria, fungi and protozoa
B16 melanoma [8]; 5 mg/kg/day, FIG. 12
  impact on tumor volume: no significant impact on tumor volume
B16 melanoma [8]; 15 mg/kg/day
  effect compared with combination: Neither administration of squalamine at 15 mg/kg/day nor compound 1436 alone in a tolerable schedule could achieve this effect
B16
  cytostatic activity against B16 in culture: minimal cytostatic activity
Rabbit NHE1
  inhibitory activity against rabbit NHE1: no inhibitory activity
Human NHE1
  inhibitory activity against human NHE1: no inhibitory activity
[9]
  inhibition of neutrophil adherence: no inhibition
Human melanoma 1205Lu; 10, 20, 40 mg/kg/d, FIG. 5
  suppression of tumor growth: clear suppression of tumor growth in a dose-dependent fashion
Human melanoma 1205Lu; words
  reversibility after cessation of treatment: reversible
Rabbit NHE3; 5 μg/ml, cells not acid-preloaded, FIG. 1B
  resting internal pH: the resting pH of these cells was also inhibited
Rabbit NHE3; squalamine 5 μg/ml, FIGS. 1A, 1B
  inhibition of NHE3, effect on Km and Vmax: inhibited NHE3 with respect to proton concentration at both Km and Vmax levels
Rabbit NHE3; words
  inactivation of exchanger compared with amiloride: more profoundly inactivated by squalamine than by amiloride
  specificity NHE3 over NHE1: specificity for NHE3 over NHE1
